Common to all, as to type: in vivo
The subject of assay [1] is OsWRKY45. The experiment in a line: Induction of OsWRKY45 gene expression by BTH treatment (Northern blot analysis). Conditions: rice seedlings 3.5-leaf stage, 0.5 mM BTH, leaves. As to the method:
FIG. 1 depicts the induction of OsWRKY45 gene expression by BTH treatment. Rice plants at the 3.5-leaf stage were treated with BTH, and RNAs were prepared from leaves over time and subjected to Northern analysis. For comparison, two types of PR genes (PR1b and PBZ1) were also examined for induction of expression.
In order to detect a transcription factor gene inducibly expressed by BTH, rice seedlings (3.5-leaf stage) on day 10 after seeding were treated with 0.5 mM BTH (in 0.01% Tween 20/0.5% acetone), and the RNAs prepared over time (12, 24, 72, and 120 hours after the treatment) from BTH-treated and mock-treated rice leaves were subjected to DNA microarray analysis with the rice 22K array (Agilent). As a result, a WRKY transcription factor gene (OsWRKY45, AK066255; SEQ ID NOs: 1 and 2) that is inducibly expressed by BTH treatment was found.

Assay [2] relates to PR1b and OsWRKY45 expression. Nature of the assay: Induction of PR1b and OsWRKY45 expression by BTH in NH1 RNAi rice plants (RT-PCR). The conditions noted are these: rice plants in which NH1 was suppressed by RNAi. The text has this: FIG. 10 is composed of photographs depicting OsWRKY45 expression in rice plants in which the expression of NH1, a rice NPR1 homolog, is suppressed by RNAi. Two lines (#7 and #14) in which the NH1 expression was suppressed by RNAi were BTH-treated or mock-treated to examine the induction of expression of PR1b and OsWRKY45 by RT-PCR.
Recently, it was reported that in Arabidopsis thaliana, the resistance to a filamentous fungus, Erysiphe cichoracearum, was enhanced by the introduction of WRKY70, a WRKY transcription factor (Li, J., Brader, G., Kariola, T., and Palva, E. T. (2006). WRKY70 modulates the selection of signaling pathways in plant defense. Plant J. 46, 477-491). […] From these findings, WRKY70 is thought to be a transcription factor downstream of NPR1. Thus, for comparison of functions between WRKY70 and OsWRKY45, the induction of PR1b and OsWRKY45 expressions by BTH was examined in rice plants in which NH1, a rice NPR1 homolog (Chern, M., Fitzgerald, H. A., Canlas, P. E., Navarre, D. A., and Ronald, P. C. (2005). Overexpression of a rice NPR1 homolog leads to constitutive activation of defense response and hypersensitivity to light. Mol. Plant-Microbe Int. 18, 511-520) was suppressed by RNAi.

Assay [3] relates to blast disease fungus (race 007). The experiment in a line: Blast disease assay after BTH treatment in non-transformed and OsWRKY45 RNAi rice plants. The conditions noted are these: 0.5 mM BTH sprayed at 4-leaf stage, inoculated 2 days later, counted after 7 days. The text has this:
FIG. 8 is a graph depicting the results of inducing the blast disease resistance by BTH in rice plants in which OsWRKY45 expression is suppressed. A blast disease fungus was inoculated into non-transformed rice plants, either treated or not treated with BTH, and BTH-treated rice plants in which OsWRKY45 expression was suppressed. After seven days, the number of blotches on the 10-cm long central part of leaf blades was counted in each plant.
In order to examine the effect of suppression of OsWRKY45 expression on the blast disease resistance induced in rice by BTH treatment, non-transformed rice plants and transformed lines of rice plant in which the suppression of OsWRKY45 expression by RNAi had been confirmed were sprayed with 0.5 mM BTH at the 4-leaf stage, and then inoculated with a compatible blast disease fungus (race 007) 2 days later. After 7 days, the blotches present on the 10-cm long central part of leaf blades were counted in each plant body.

For `c1ccc2snnc2c1` [BTH, benzothiadiazole], the “time after BTH treatment within which OsWRKY45 expression was induced” value in assay [1] was no more than 3 h. In addition, the “induction of OsWRKY45 expression by BTH” value in assay [2] is on record as “not affected at all”. The “induction of PR1b expression by BTH” value in assay [2] is “completely lost”. Also, the “blotches on the 10-cm long central part of leaf blades” value in assay [3] (non-transformed rice) is reported as “Almost no blotches were observed”; in assay [3] (rice with OsWRKY45 expression suppressed by RNAi), “nearly equal number of blotches to that in non-treated, non-transformed rice plants”.

These data come from patent publication US8373021B2, “Improving disease resistance in plants by introducing transcription factor gene” (priority 2005, dated 2013).
